According to patent US20130131043A1, “PYRAZOLE COMPOUNDS AS JAK INHIBITORS” (priority 2010, published 2013):
pIC50: −log10 of the molar value.

Columns and labels:
[1] = NOD mouse model of type I diabetes; cited from earlier work
[2] = in vivo; cited from earlier work
JAK2 = biological target: T1, JAK2 (Homo sapiens, UniProt O60674); assay: Kinobeads assay, JAK2 (competition binding in cell lysate, dot blot detection); details: mixed Molt4/Ramos lysate
T1 construct: endogenous in cells; host or cells: Molt4 (ATCC CRL-1582) and Ramos (ATCC CRL-1596) cell lysate; mixed Molt4/Ramos lysate 1:2
How it was run: (§1)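 Competition binding of compound against immobilized aminopyrido-pyrimidine affinity beads in mixed Molt4/Ramos lysate (1:2, 10 mg/mL protein), 3 h in cold room. Bead-bound JAK2 or JAK3 eluted and quantified by antibody dot blot with infrared detection; IC50 from 9-step 1:3 dose-response curves.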

JAK3 = biological target: T2, JAK3 (Homo sapiens, UniProt P52333); assay: Kinobeads assay, JAK3 (competition binding in cell lysate, dot blot detection); details: mixed Molt4/Ramos lysate
T2 construct: endogenous in cells; host or cells: Molt4 (ATCC CRL-1582) and Ramos (ATCC CRL-1596) cell lysate; mixed Molt4/Ramos lysate 1:2
T2 sequence (P52333 1-1124): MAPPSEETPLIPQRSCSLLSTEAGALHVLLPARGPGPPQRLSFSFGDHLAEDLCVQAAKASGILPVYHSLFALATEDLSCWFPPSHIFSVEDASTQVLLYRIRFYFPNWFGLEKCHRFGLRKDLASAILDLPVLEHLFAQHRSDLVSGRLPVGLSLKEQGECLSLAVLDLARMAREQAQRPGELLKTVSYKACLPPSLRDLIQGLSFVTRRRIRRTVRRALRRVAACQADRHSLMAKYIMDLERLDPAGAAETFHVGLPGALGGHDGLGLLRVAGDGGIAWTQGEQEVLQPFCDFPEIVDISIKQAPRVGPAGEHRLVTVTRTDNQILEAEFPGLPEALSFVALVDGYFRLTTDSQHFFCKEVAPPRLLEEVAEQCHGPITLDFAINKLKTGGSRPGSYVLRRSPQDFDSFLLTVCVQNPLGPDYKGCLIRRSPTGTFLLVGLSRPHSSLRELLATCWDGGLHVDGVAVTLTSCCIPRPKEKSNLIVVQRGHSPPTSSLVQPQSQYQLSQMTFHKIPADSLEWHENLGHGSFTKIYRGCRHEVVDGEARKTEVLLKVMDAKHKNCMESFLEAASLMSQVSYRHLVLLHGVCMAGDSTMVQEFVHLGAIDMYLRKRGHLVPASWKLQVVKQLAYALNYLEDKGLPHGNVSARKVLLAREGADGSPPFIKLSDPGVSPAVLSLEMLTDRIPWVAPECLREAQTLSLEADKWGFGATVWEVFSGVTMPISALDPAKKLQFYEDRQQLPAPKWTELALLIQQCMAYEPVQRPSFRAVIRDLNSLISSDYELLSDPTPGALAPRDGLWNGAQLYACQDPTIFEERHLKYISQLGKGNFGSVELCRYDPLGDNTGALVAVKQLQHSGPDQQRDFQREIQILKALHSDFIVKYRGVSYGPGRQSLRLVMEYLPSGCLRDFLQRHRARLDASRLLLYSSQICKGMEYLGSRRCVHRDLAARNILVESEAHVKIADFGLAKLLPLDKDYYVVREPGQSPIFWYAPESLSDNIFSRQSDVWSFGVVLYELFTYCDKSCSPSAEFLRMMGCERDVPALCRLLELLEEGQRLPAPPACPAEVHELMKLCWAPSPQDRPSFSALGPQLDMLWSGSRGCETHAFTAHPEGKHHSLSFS
How it was run: as §1

[3] = in vivo; cited from earlier work; remark: listed apart in the source

T1 sequence (O60674 whole entry): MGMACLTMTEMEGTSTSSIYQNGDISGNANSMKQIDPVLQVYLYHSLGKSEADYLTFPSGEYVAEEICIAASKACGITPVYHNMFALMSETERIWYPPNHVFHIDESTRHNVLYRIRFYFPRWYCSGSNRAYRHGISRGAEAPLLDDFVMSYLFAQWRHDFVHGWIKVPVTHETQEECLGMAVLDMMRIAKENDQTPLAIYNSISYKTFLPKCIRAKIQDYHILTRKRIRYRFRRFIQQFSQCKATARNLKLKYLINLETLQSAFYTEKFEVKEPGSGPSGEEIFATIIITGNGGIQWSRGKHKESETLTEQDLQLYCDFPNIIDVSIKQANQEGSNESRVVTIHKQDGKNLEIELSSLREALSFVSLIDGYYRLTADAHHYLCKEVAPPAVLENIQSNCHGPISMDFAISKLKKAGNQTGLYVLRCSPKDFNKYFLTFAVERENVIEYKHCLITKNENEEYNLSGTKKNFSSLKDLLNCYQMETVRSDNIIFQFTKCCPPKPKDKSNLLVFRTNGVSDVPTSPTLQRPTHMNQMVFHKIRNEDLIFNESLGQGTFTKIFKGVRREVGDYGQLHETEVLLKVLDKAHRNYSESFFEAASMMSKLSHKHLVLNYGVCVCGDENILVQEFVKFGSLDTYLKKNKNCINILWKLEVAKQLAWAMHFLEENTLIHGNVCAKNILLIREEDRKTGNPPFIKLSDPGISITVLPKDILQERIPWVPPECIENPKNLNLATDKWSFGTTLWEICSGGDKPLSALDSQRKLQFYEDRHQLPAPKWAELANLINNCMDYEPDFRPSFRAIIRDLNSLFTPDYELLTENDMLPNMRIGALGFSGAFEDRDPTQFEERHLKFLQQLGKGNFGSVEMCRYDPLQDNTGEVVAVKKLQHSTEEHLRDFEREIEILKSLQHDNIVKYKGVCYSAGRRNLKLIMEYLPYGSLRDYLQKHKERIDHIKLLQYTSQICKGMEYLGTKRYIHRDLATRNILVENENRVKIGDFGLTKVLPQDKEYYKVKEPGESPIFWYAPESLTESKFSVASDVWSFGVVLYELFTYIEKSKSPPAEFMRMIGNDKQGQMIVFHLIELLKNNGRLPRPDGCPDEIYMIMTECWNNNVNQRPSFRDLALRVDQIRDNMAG

Structure (SMILES) | pIC50 (JAK2) | pIC50 (JAK3) | spontaneous autoimmune diabetes development [1] | severity of GVHD [2] | efficacy in an animal model of organ transplantation [3]
COc1cc2ncnc(Nc3ccc(O)cc3)c2cc1OC [JANEX-1] |  |  | prevent spontaneous autoimmune diabetes development | attenuate the severity of GVHD | 
COCCCN1CCCC(Cn2ncc3cnc(Nc4cnn(C)c4)nc32)C1 (centres unmarked) [Example 58, 1-((1-(3-methoxypropyl)piperidin-3-yl)methyl)-N-(1-methyl-1H-pyrazol-4-yl)-1H-pyrazolo[3,4-d]pyrimidin-6-amine] | < 5.00 | 6.00 to 7.00 |  |  | 
C[C@@H]1CCN(C(=O)CC#N)C[C@@H]1N(C)c1ncnc2[nH]ccc12 [CP-690,550] |  |  |  |  | show efficacy
Cn1cc(Nc2ncc3cnn(C4CCCN(C(=O)CC#N)C4)c3n2)cn1 (centres unmarked) [Example 25, 3-(3-(6-((1-methyl-1H-pyrazol-4-yl)amino)-1H-pyrazolo[3,4-d]pyrimidin-1-yl)piperidin-1-yl)-3-oxopropanenitrile] | < 5.00 | 6.00 to 7.00 |  |  | 
C[C@H]1CCCC[C@H]1n1ncc2cnc(Nc3cnn(C)c3)nc21 (racemic) [Example 11, Rac-cis-N-(1-methyl-1H-pyrazol-4-yl)-1-(2-methylcyclohexyl)-1H-pyrazolo[3,4-d]pyrimidin-6-amine] | 5.00 to 6.00 | 6.00 to 7.00 |  |  | 
Cn1cc(Nc2ncc3cnn(CC4CCN(S(C)(=O)=O)C4)c3n2)cn1 (centres unmarked) [Example 48, N-(1-methyl-1H-pyrazol-4-yl)-1-((1-(methylsulfonyl)pyrrolidin-3-yl)methyl)-1H-pyrazolo[3,4-d]pyrimidin-6-amine] | < 5.00 | 6.00 to 7.00 |  |  | 
Cn1cc(Nc2ncc3cnn(CC4CCCN(S(=O)(=O)C5CC5)C4)c3n2)cn1 (centres unmarked) [Example 33, 1-((1-(cyclopropylsulfonyl)piperidin-3-yl)methyl)-N-(1-methyl-1H-pyrazol-4-yl)-1H-pyrazolo[3,4-d]pyrimidin-6-amine] | 5.00 to 6.00 | > 7.00 |  |  | 
COCCC(=O)N1CCCC(Cn2ncc3cnc(Nc4cnn(C)c4)nc32)C1 (centres unmarked) [Example 27, 3-methoxy-1-(3-((6-((1-methyl-1H-pyrazol-4-yl)amino)-1H-pyrazolo[3,4-d]pyrimidin-1-yl)methyl)piperidin-1-yl)propan-1-one] | 5.00 to 6.00 | 6.00 to 7.00 |  |  | 
Cn1cc(Nc2ncc3cnn(CC4CCCN(C(=O)C5CCOCC5)C4)c3n2)cn1 (centres unmarked) [Example 28, (3-((6-((1-methyl-1H-pyrazol-4-yl)amino)-1H-pyrazolo[3,4-d]pyrimidin-1-yl)methyl)piperidin-1-yl)(tetrahydro-2H-pyran-4-yl)methanone] | < 5.00 | 6.00 to 7.00 |  |  | 
Cn1cc(Nc2ncc3cnn(C4CCCNC4)c3n2)cn1 (centres unmarked) [Example 10, N-(1-methyl-1H-pyrazol-4-yl)-1-(piperidin-3-yl)-1H-pyrazolo[3,4-d]pyrimidin-6-amine] | < 5.00 | 5.00 to 6.00 |  |  | 

Second part, led by results:

pIC50 (JAK2) | pIC50 (JAK3) | Structure (SMILES) | spontaneous autoimmune diabetes development [1] | severity of GVHD [2] | efficacy in an animal model of organ transplantation [3]
5.00 to 6.00 | > 7.00 | Cn1cc(Nc2ncc3cnn(CC4CCCN(CCCS(C)(=O)=O)C4)c3n2)cn1 (centres unmarked) [Example 62, N-(1-methyl-1H-pyrazol-4-yl)-1-((1-(3-(methylsulfonyl)propyl)piperidin-3-yl)methyl)-1H-pyrazolo[3,4-d]pyrimidin-6-amine] |  |  | 
5.00 to 6.00 | > 7.00 | Cn1cc(Nc2ncc3cnn(CC4CCCCC4)c3n2)cn1 [Example 16, 1-(Cyclohexylmethyl)-N-(1-methyl-M-pyrazol-4-yl)-1H-pyrazolo[3,4-d]pyrimidin-6-amine] |  |  | 
5.00 to 6.00 | > 7.00 | Cn1cc(Nc2ncc3cnn(CC4CCCN(S(C)(=O)=O)C4)c3n2)cn1 (centres unmarked) [Example 1] |  |  | 
5.00 to 6.00 | > 7.00 | Cn1cc(Nc2ncc3cnn(CC4CCCN(CC#N)C4)c3n2)cn1 (centres unmarked) [Example 54, 2-(3-((6-((1-methyl-1H-pyrazol-4-yl)amino)-1H-pyrazolo[3,4-d]pyrimidin-1-yl)methyl)piperidin-1-yl)acetonitrile] |  |  | 
5.00 to 6.00 | 6.00 to 7.00 | Cn1cc(Nc2ncc3cnn(CCC4CCCN(S(C)(=O)=O)C4)c3n2)cn1 (centres unmarked) [Example 34, N-(1-methyl-1H-pyrazol-4-yl)-1-(2-(1-(methylsulfonyl)piperidin-3-yl)ethyl)-1H-pyrazolo[3,4-d]pyrimidin-6-amine] |  |  | 
